Test systems include M14 melanoma; IGROV1 ovarian; SF-539 CNS; SK-MEL-5 melanoma; CCRF-CEM leukemia; OVCAR-8 ovarian; UACC-257 melanoma; DU-145 prostate; NCI-H522 lung; SF-268 CNS; PC-3 prostate; MDA-N; 786-0 renal; MDA-MB-231 breast; TK-10 renal; SF-295 CNS; HOP-62 NSCLC; T-47D breast; SK-MEL-28 melanoma; NCI-H460 lung.
Holding throughout (experiment): inhibition of tumour cell growth, NCI panel, 48 h

SMILES strings stand for the structures.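 Five concentrations, 48 hours, 96-well plates. The concentration for full growth arrest is given as TGI.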

Turning to `Cc1ccc2c3c1O[C@H]1c4[nH]c5ccccc5c4C[C@@]4(O)[C@@H](C2)N(C)CC[C@]314`, the TGI in the experiment on M14 melanoma is 31.1 µM; with IGROV1 ovarian, 34.9 µM; in the experiment on SF-539 CNS it was 31.9 µM; in the experiment with SK-MEL-5 melanoma it was 28.2 µM; in the experiment on CCRF-CEM leukemia, 35 µM; with OVCAR-8 ovarian, 34.8 µM. For the same compound, the TGI turned out to be 28.2 µM with UACC-257 melanoma; 39 µM in the experiment with DU-145 prostate; 36 µM with NCI-H522 lung; 34.7 µM in the experiment with SF-268 CNS; 33.6 µM in the experiment with PC-3 prostate; 33.3 µM in the experiment on MDA-N. The TGI with 786-0 renal worked out at 29.8 µM; with MDA-MB-231 breast it was 28.5 µM.
As for `O=P1(O)C=CC2(CCCC2)O1`, the TGI with M14 melanoma, in the experiment on IGROV1 ovarian, in the experiment with SF-539 CNS, in the experiment on TK-10 renal, in the experiment with SK-MEL-5 melanoma and with SF-295 CNS was over 100 µM each time. Further, the TGI with OVCAR-8 ovarian, in the experiment on UACC-257 melanoma, in the experiment with HOP-62 NSCLC, in the experiment on DU-145 prostate, with NCI-H522 lung and in the experiment with SF-268 CNS was over 100 µM each time. Besides, the TGI in the experiment with T-47D breast, in the experiment on SK-MEL-28 melanoma, with NCI-H460 lung, with PC-3 prostate, with MDA-N and in the experiment on 786-0 renal was over 100 µM throughout.
As to `N#CN=C(N)c1sc2nc3c(c(-c4ccc(Br)cc4)c2c1N)CCCC3`, the TGI is over 100 µM with M14 melanoma; over 100 µM in the experiment with SF-539 CNS; over 100 µM with TK-10 renal; 38.3 µM with SK-MEL-5 melanoma; over 100 µM in the experiment on CCRF-CEM leukemia; 58.6 µM in the experiment with SF-295 CNS. For the same compound, the TGI with OVCAR-8 ovarian was 86.8 µM; in the experiment with UACC-257 melanoma, over 100 µM; in the experiment with DU-145 prostate, 71.9 µM; in the experiment on SF-268 CNS, over 100 µM; in the experiment with SK-MEL-28 melanoma, over 100 µM; with NCI-H460 lung, over 100 µM. Besides, the TGI with PC-3 prostate was determined as 52.7 µM; in the experiment with MDA-N it was 34.4 µM; with 786-0 renal, 50.2 µM; in the experiment with MDA-MB-231 breast, 70.8 µM.
As to `Nc1sc2c(c1C(=O)c1ccc(Cl)c(Cl)c1)CCCC2`, the TGI with M14 melanoma, in the experiment on SF-539 CNS, in the experiment with TK-10 renal, with CCRF-CEM leukemia, with SF-295 CNS and with OVCAR-8 ovarian was over 100 µM in each case. The TGI with UACC-257 melanoma is over 100 µM; in the experiment with HOP-62 NSCLC, over 100 µM; in the experiment with DU-145 prostate, over 100 µM; in the experiment on NCI-H522 lung it was 50.2 µM; in the experiment with SF-268 CNS, over 100 µM; in the experiment on T-47D breast it was over 100 µM. In addition, the TGI in the experiment on SK-MEL-28 melanoma, with NCI-H460 lung, with PC-3 prostate, in the experiment with 786-0 renal and in the experiment on MDA-MB-231 breast was over 100 µM each time.
`O=c1cc(NCCCCCO)[nH]c(=O)[nH]1`: the TGI in the experiment on M14 melanoma, in the experiment with IGROV1 ovarian, in the experiment on SF-539 CNS, with TK-10 renal, in the experiment with SK-MEL-5 melanoma and in the experiment on CCRF-CEM leukemia was over 100 µM in each case. For the same compound, the TGI in the experiment with SF-295 CNS, in the experiment with OVCAR-8 ovarian, with UACC-257 melanoma, in the experiment with HOP-62 NSCLC, in the experiment with NCI-H522 lung and in the experiment with SF-268 CNS was over 100 µM throughout. The TGI in the experiment on T-47D breast, in the experiment with SK-MEL-28 melanoma, in the experiment on NCI-H460 lung, with PC-3 prostate, in the experiment with MDA-N and in the experiment on 786-0 renal was over 100 µM in each case. Further, the TGI with MDA-MB-231 breast is over 100 µM.
For the compound `NCCSc1nc2ccccc2s1`, the TGI with M14 melanoma is over 100 µM; with IGROV1 ovarian, over 100 µM; with SF-539 CNS, 37.6 µM; with TK-10 renal, 66.3 µM; with SK-MEL-5 melanoma, over 100 µM; in the experiment with CCRF-CEM leukemia it was over 100 µM. In addition, the TGI in the experiment with SF-295 CNS is 73.2 µM; in the experiment with OVCAR-8 ovarian, over 100 µM; with UACC-257 melanoma, over 100 µM; in the experiment on HOP-62 NSCLC, 62.3 µM; in the experiment on DU-145 prostate, over 100 µM; in the experiment on NCI-H522 lung, 75.7 µM. For the same compound, the TGI in the experiment on SF-268 CNS is 86 µM; with SK-MEL-28 melanoma it was over 100 µM; in the experiment on NCI-H460 lung, over 100 µM; in the experiment on PC-3 prostate it was over 100 µM; with MDA-N it was over 100 µM; with 786-0 renal, 71.5 µM. Further, the TGI in the experiment with MDA-MB-231 breast was over 100 µM.
On to `COc1ccc(C2=CC(c3ccccc3)n3nnnc3N2)cc1` (stereo not drawn), for which the TGI with M14 melanoma, in the experiment on IGROV1 ovarian, in the experiment with SF-539 CNS, in the experiment on SK-MEL-5 melanoma, in the experiment with CCRF-CEM leukemia and with SF-295 CNS was over 100 µM throughout. Also, the TGI in the experiment with OVCAR-8 ovarian, with UACC-257 melanoma, with HOP-62 NSCLC, in the experiment with DU-145 prostate, with NCI-H522 lung and in the experiment with SF-268 CNS was over 100 µM in each case. Moreover, the TGI in the experiment with T-47D breast, in the experiment with NCI-H460 lung, in the experiment on PC-3 prostate, in the experiment with 786-0 renal and in the experiment with MDA-MB-231 breast was over 100 µM each time.
As to `COc1cc(C2SCC(=O)N2c2cc(Cl)c(Cl)cc2Cl)cc(OC)c1OC` (stereo not drawn), the TGI in the experiment with M14 melanoma is over 100 µM; with IGROV1 ovarian, over 100 µM; in the experiment on SF-539 CNS it was over 100 µM; with TK-10 renal, over 100 µM; in the experiment with SK-MEL-5 melanoma, over 100 µM; in the experiment on CCRF-CEM leukemia it was 77.6 µM. Moreover, the TGI in the experiment with SF-295 CNS, in the experiment on OVCAR-8 ovarian, in the experiment with UACC-257 melanoma, with DU-145 prostate, in the experiment with NCI-H522 lung and with SF-268 CNS was over 100 µM throughout. In addition, the TGI in the experiment on SK-MEL-28 melanoma is over 100 µM; in the experiment on NCI-H460 lung, over 100 µM; with PC-3 prostate, over 100 µM; in the experiment with MDA-N, 95.4 µM; in the experiment on 786-0 renal, over 100 µM; in the experiment on MDA-MB-231 breast, over 100 µM.

Values taken from PubChem BioAssay (NCI).
